Results: PubChem BioAssay AID1259411 (Chemical Carcinogenesis Research Information System (CCRIS), 2018)
Calls of active or inactive are those of the source. The rule behind the calls is not given here.

System: rodent carcinogenicity bioassays, tumor incidence
Assay: CCRIS carcinogenicity studies
Summary of the method: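 Archive of carcinogenicity, mutagenicity, tumor promotion and tumor inhibition results drawn from journals, NCI reports and other sources, expert-reviewed; covers 1985-2011 and is no longer updated.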

**Q.** `Cc1ccc([N+](=O)[O-])cc1N` was tested. Which carcinogen call (Species: MOUSE, Strain/Sex: B6C3F1/FEMALE, Route: ORAL, Dose: 0, 0.12, 0.23% OF DIET, TWA, Dose: 0, 0.12, 0.23% OF DIET, TWA, Tumor Site: Type of Lesion: LIVER: HEPATOCELLULAR CARCINOMA, BLOOD VESSELS: HEMANGIOSARCOMA) did it give?
**A.** active; positive

**Q.** And the carcinogen call (Species: MOUSE, Strain/Sex: B6C3F1/MALE, Route: ORAL, Dose: 0, 0.12, 0.23% OF DIET, TWA, Dose: 0, 0.12, 0.23% OF DIET, TWA, Tumor Site: Type of Lesion: LIVER: HEPATOCELLULAR CARCINOMA, BLOOD VESSELS: HEMANGIOSARCOMA OR HEMANGIOMA)?
**A.** active; positive

**Q.** And the carcinogen call (Species: RAT, Strain/Sex: F344/FEMALE, Route: ORAL, Dose: 0, 0.005, 0.01% OF DIET, TWA, Dose: 0, 0.005, 0.01% OF DIET, TWA)?
**A.** inactive; negative

**Q.** What about the carcinogen call (Species: RAT, Strain/Sex: F344/MALE, Route: ORAL, Dose: 0, 0.005, 0.01% OF DIET, TWA, Dose: 0, 0.005, 0.01% OF DIET, TWA) of the same molecule?
**A.** inactive; negative

**Q.** Which results are given for `S=C1NCCN1`?
**A.** carcinogen call (Species: MOUSE, Strain/Sex: B6AKF1/MALE,FEMALE, Route: GAVAGE/ORAL, Dose: 215 MG/KG IN GELATIN FROM DAY 7-28 OF LIFE THEN 646 PPM IN DIET, Tumor Site: Type of Lesion: LIVER: HEPATOMA, LYMPHATIC SYSTEM: LYMPHOMA): active; positive; carcinogen call (Species: MOUSE, Strain/Sex: B6C3F1/FEMALE, Route: ORAL, Dose: 0, 100, 330, 1000 PPM IN FEED FOR 24 MO, ADMINISTRATION BEGUN AT 8 WK OF AGE TO ANIMALS EXPOSED PERINATALLY BY ORAL, Dose: 0, 100, 330, 1000 PPM IN FEED FOR 24 MO, ADMINISTRATION BEGUN AT 8 WK OF AGE TO ANIMALS EXPOSED PERINATALLY BY ORAL, Tumor Site: Type of Lesion: LIVER: HEPATOCELLULAR ADENOMA, HEPATOCELLULAR CARCINOMA, PITUITARY GLAND, PARS DISTALIS: ADENOMA, THYROID GLAND: FOLLICU, Tumor Site: Type of Lesion: LIVER: HEPATOCELLULAR ADENOMA, HEPATOCELLULAR CARCINOMA, PITUITARY GLAND, PARS DISTALIS: ADENOMA, THYROID GLAND: FOLLICU): active; positive; carcinogen call (Species: MOUSE, Strain/Sex: B6C3F1/FEMALE, Route: ORAL, Dose: 0, 330, 1000 PPM IN FEED FOR 24 MO (STUDY DURATION: 2 YR), Dose: 0, 330, 1000 PPM IN FEED FOR 24 MO (STUDY DURATION: 2 YR), Tumor Site: Type of Lesion: LIVER: HEPATOCELLULAR ADENOMA, HEPATOCELLULAR CARCINOMA, PITUITARY GLAND, PARS DISTALIS: ADENOMA, THYROID GLAND: FOLLICU, Tumor Site: Type of Lesion: LIVER: HEPATOCELLULAR ADENOMA, HEPATOCELLULAR CARCINOMA, PITUITARY GLAND, PARS DISTALIS: ADENOMA, THYROID GLAND: FOLLICU): active; positive; carcinogen call (Species: MOUSE, Strain/Sex: B6C3F1/MALE,FEMALE, Route: GAVAGE/ORAL, Dose: 215 MG/KG IN GELATIN FROM DAY 7-28 OF LIFE THEN 646 PPM IN DIET, Tumor Site: Type of Lesion: LIVER: HEPATOMA, LYMPHATIC SYSTEM: LYMPHOMA): active; positive; carcinogen call (Species: MOUSE, Strain/Sex: B6C3F1/MALE, Route: ORAL, Dose: 0, 100, 330, 1000 PPM IN FEED FOR 24 MO, ADMINISTRATION BEGUN AT 8 WK OF AGE TO ANIMALS EXPOSED PERINATALLY BY ORAL, Dose: 0, 100, 330, 1000 PPM IN FEED FOR 24 MO, ADMINISTRATION BEGUN AT 8 WK OF AGE TO ANIMALS EXPOSED PERINATALLY BY ORAL, Tumor Site: Type of Lesion: LIVER: HEPATOCELLULAR CARCINOMA, HEPATOCELLULAR ADENOMA OR CARCINOMA, THYROID GLAND: FOLLICULAR CELL ADENOMA, FOLLICULAR): active; positive; carcinogen call (Species: MOUSE, Strain/Sex: B6C3F1/MALE, Route: ORAL, Dose: 0, 330, 1000 PPM IN FEED FOR 24 MO (STUDY DURATION: 2 YR), Dose: 0, 330, 1000 PPM IN FEED FOR 24 MO (STUDY DURATION: 2 YR), Tumor Site: Type of Lesion: LIVER: HEPATOCELLULAR CARCINOMA, PITUITARY GLAND, PARS DISTALIS: ADENOMA, THYROID GLAND: FOLLICULAR CELL ADENOMA, Tumor Site: Type of Lesion: LIVER: HEPATOCELLULAR CARCINOMA, PITUITARY GLAND, PARS DISTALIS: ADENOMA, THYROID GLAND: FOLLICULAR CELL ADENOMA): active; positive; carcinogen call (Species: RAT, Strain/Sex: F344/FEMALE, Route: ORAL, Dose: 0, 25, 83, 250 PPM IN FEED FOR 24 MO, ADMINISTRATION BEGUN AT 8 WK OF AGE TO ANIMALS EXPOSED PERINATALLY BY ORAL DOS, Dose: 0, 25, 83, 250 PPM IN FEED FOR 24 MO, ADMINISTRATION BEGUN AT 8 WK OF AGE TO ANIMALS EXPOSED PERINATALLY BY ORAL DOS, Tumor Site: Type of Lesion: THYROID GLAND: FOLLICULAR CELL ADENOMA, FOLLICULAR CELL CARCINOMA): active; positive; carcinogen call (Species: RAT, Strain/Sex: F344/FEMALE, Route: ORAL, Dose: 0, 83, 250 PPM IN FEED FOR 24 MO (STUDY DURATION: 2 YR), Dose: 0, 83, 250 PPM IN FEED FOR 24 MO (STUDY DURATION: 2 YR), Tumor Site: Type of Lesion: THYROID GLAND: FOLLICULAR CELL ADENOMA, FOLLICULAR CELL CARCINOMA): active; positive; carcinogen call (Species: RAT, Strain/Sex: F344/MALE, Route: ORAL, Dose: 0, 25, 83, 250 PPM IN FEED FOR 24 MO, ADMINISTRATION BEGUN AT 8 WK OF AGE TO ANIMALS EXPOSED PERINATALLY BY DOSES TO, Dose: 0, 25, 83, 250 PPM IN FEED FOR 24 MO, ADMINISTRATION BEGUN AT 8 WK OF AGE TO ANIMALS EXPOSED PERINATALLY BY DOSES TO, Tumor Site: Type of Lesion: THYROID GLAND: FOLLICULAR CELL ADENOMA, FOLLICULAR CELL CARCINOMA): active; positive; carcinogen call (Species: RAT, Strain/Sex: F344/MALE, Route: ORAL, Dose: 0, 83, 250 PPM IN FEED FOR 24 MO (STUDY DURATION: 2 YR), Dose: 0, 83, 250 PPM IN FEED FOR 24 MO (STUDY DURATION: 2 YR), Tumor Site: Type of Lesion: THYROID GLAND: FOLLICULAR CELL ADENOMA, FOLLICULAR CELL CARCINOMA): active; positive; carcinogen call (Species: RAT, Strain/Sex: STRAIN-CD/MALE,FEMALE, Route: ORAL, Dose: 175, 350 PPM IN DIET FOR 78 WK, Tumor Site: Type of Lesion: THYROID GLAND: FOLLICULAR CARCINOMA): active; positive

**Q.** With `CC1OCCN1N=O` (stereo unspecified) as the molecule, how does the carcinogen call (Species: RAT, Strain/Sex: F344/FEMALE, Route: ORAL, Dose: 40 MG/L IN DRINKING WATER FOR 50 WK, Tumor Site: Type of Lesion: LIVER: HEPATOCELLULAR CARCINOMA, HEMANGIOENDOTHELIAL SARCOMA) read?
**A.** active; positive

**Q.** How did the carcinogen call (Species: MOUSE, Strain/Sex: STRAIN-A/MALE,FEMALE, Route: INTRAVENOUS, Dose: 0, 2, 4, 8 UG/KG ONCE (STUDY DURATION: 24 WK), Dose: 0, 2, 4, 8 UG/KG ONCE (STUDY DURATION: 24 WK), Tumor Site: Type of Lesion: LUNG: ADENOMA) turn out when `COc1c(O)c2c(c3cc(C(=O)N4CCc5c4c(O)c(OC)c4[nH]c(C(=O)N6C[C@H]7C[C@@]78C6=CC(=O)c6[nH]cc(C)c68)cc54)[nH]c13)CCN2C(N)=O` was run?
**A.** active; positive

**Q.** Which carcinogen call (Species: HAMSTER, Strain/Sex: SYRIAN/FEMALE, Route: SUBCUTANEOUS, Dose: 40 MG/KG 1/WK, Tumor Site: Type of Lesion: FORESTOMACH: SQUAMOUS CELL CARCINOMA, MAMMARY GLAND: ADENOCARCINOMA OR ADENOACANTHOMA, UTERUS: ADENOACANTHOMA, Tumor Site: Type of Lesion: FORESTOMACH: SQUAMOUS CELL CARCINOMA, MAMMARY GLAND: ADENOCARCINOMA OR ADENOACANTHOMA, UTERUS: ADENOACANTHOMA) does the source give for `CN(C)C(=O)NN=O` here?
**A.** active; positive

**Q.** And the carcinogen call (Species: HAMSTER, Strain/Sex: SYRIAN/MALE, Route: SUBCUTANEOUS, Dose: 40 MG/KG 1/WK, Tumor Site: Type of Lesion: FORESTOMACH: SQUAMOUS CELL CARCINOMA)?
**A.** active; positive

**Q.** And the carcinogen call (Species: MOUSE, Strain/Sex: C3H/FEMALE, Route: SUBCUTANEOUS, Dose: 80 MG/KG 1/WK (TOTAL AVE DOSE 1015 MG/KG), Tumor Site: Type of Lesion: LYMPHATIC SYSTEM: MALIGNANT LYMPHOMA)?
**A.** active; positive

**Q.** And the carcinogen call (Species: MOUSE, Strain/Sex: C3H/MALE, Route: SUBCUTANEOUS, Dose: 80 MG/KG 1/WK (TOTAL AVE DOSE 1073 MG/KG), Tumor Site: Type of Lesion: LYMPHATIC SYSTEM: MALIGNANT LYMPHOMA)?
**A.** active; positive
